Consider one molecule from paper PMC3901045 (Lab on a chip, 2013).

In this test the target is T1, cyt P450 1A1 (Homo sapiens, UniProt P04798).
T1 sequence (P04798 1-512): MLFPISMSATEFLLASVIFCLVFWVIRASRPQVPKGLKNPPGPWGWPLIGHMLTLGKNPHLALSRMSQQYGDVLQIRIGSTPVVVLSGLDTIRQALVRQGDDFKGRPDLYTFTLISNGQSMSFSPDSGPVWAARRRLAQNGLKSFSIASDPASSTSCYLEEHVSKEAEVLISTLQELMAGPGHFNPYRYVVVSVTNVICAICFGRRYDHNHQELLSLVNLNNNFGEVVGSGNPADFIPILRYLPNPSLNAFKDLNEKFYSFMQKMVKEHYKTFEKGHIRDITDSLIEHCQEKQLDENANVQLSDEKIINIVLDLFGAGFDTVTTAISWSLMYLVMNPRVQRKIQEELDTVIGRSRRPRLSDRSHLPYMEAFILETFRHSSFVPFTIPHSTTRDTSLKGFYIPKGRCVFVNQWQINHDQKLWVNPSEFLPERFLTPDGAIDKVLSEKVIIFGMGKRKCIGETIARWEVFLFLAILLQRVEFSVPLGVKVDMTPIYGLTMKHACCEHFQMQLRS
It is filed as biochemical.

In turn, `COc1ccc(/C=C/c2cc(O)cc(O)c2)cc1O` [rhapontigenin] showed an IC50 of 32 ± 1 nM.

The IC50 is the concentration needed to halve the response being measured. Low readings indicate inhibition by little substance, high ones a need for much substance.
